The source of these data is publication PMC5353688, “Both Drosophila matrix metalloproteinases have released and membrane-tethered forms but have different substrates” (Scientific Reports, 2017).

Test [1] addresses T1, DmMmp2 (Drosophila melanogaster, UniProt Q8MPP3).
T1 construct: gene Mmp2; full-length cDNA, 3xFLAG inserted after S710 (before GPI-anchor signal), expressed in S2 cells, immunoprecipitated from conditioned media (released form); ~110 kDa in lysate
T1 sequence (Q8MPP3 137-738): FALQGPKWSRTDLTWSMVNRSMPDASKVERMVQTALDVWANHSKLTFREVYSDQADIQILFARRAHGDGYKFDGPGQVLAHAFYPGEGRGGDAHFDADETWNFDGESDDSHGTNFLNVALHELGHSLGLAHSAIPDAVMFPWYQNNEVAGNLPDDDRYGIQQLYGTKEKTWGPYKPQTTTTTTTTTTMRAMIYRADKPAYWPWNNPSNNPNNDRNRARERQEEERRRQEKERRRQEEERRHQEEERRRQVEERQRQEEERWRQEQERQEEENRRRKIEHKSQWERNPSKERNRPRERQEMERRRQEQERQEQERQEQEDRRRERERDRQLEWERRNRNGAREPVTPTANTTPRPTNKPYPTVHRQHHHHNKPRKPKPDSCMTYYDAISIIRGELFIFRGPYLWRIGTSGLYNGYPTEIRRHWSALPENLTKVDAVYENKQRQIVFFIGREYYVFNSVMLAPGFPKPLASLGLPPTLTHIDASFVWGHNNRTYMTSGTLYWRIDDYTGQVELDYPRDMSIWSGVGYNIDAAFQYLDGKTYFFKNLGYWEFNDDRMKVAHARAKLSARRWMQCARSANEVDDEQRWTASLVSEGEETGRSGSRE
Kind of test: gelatin zymography of FLAG immunoprecipitate. The format is biochemical. To be noted: GM6001 25 uM in sample before electrophoresis, 10 uM in renaturing and developing buffers; gelatin substrate; complete inhibition, no constant.

Test [2] has as its target T2, DmMmp1 (Mmp1-PF) (Drosophila melanogaster, UniProt Q8MLN6).
T2 construct: full-length cDNA (541 residues), C-terminal FLAG kept, expressed in S2 cells, immunoprecipitated from conditioned media; secreted form has lost pro-domain; ~65 kDa in lysate
T2 sequence (Q8MLN6 109-541): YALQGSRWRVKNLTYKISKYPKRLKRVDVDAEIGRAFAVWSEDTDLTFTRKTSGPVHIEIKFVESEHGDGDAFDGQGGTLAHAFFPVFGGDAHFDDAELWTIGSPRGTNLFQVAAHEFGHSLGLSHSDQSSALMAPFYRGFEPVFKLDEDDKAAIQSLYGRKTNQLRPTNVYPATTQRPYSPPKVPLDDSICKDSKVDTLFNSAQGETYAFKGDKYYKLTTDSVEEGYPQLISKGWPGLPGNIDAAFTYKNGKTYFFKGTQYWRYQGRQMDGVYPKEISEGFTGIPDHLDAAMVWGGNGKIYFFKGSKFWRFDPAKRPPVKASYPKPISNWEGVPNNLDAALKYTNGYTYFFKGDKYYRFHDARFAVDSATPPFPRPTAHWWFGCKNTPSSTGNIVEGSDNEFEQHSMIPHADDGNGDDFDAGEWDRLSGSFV
The format is biochemical. The conditions noted are these: GM6001 25 uM in sample before electrophoresis, 10 uM in renaturing and developing buffers; casein substrate; complete inhibition, no constant.

As to `CNC(=O)[C@H](Cc1c[nH]c2ccccc12)NC(=O)[C@@H](CC(=O)NO)CC(C)C` [GM6001], the “gelatin zymography of FLAG immunoprecipitate” value in test [1] was “GM6001 completely inhibited Mmp1 and Mmp2 catalytic activity on zymograms”. For the same molecule, the “casein zymography of FLAG immunoprecipitate” value in test [2] is “GM6001 completely inhibited Mmp1 and Mmp2 catalytic activity on zymograms”.
